Data reported in patent US12180193B2, “Accelerating fibrosarcoma protein degrading compounds and associated methods of use” (Arvinas Operations, Inc., priority 2020, dated 2024).

How the values were obtained:
[1] = molecular target: T1, BRAF V600E (Homo sapiens, UniProt P15056, V600E); experiment: Cellular assay of target protein degradation, T-Rex 293 cells stably transfected with HA-BRAF_V600E (HA immunofluorescence, high content imaging); type: cell-based; details: T-Rex 293 HA-BRAF V600E; for DC50: half maximal degradation, read-out: BRaf V600E DC50; for Dmax: maximum degradation observed
T1 construct: expressed in transfected cells
How it was run: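 Degradation of the HA-tagged construct is measured after 24 h treatment at 37 °C across 1 μM to 0.1 nM in 0.1% DMSO, in doxycycline-induced (1 ng/mL) cells. DC50 and Dmax come from HA fluorescence imaging.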

[2] = molecular target: T2, BRAF G466V (Homo sapiens, UniProt P15056, G466V); experiment: Cellular assay of target protein degradation, T-Rex 293 cells stably transfected with HA-BRAF G466V (HA immunofluorescence, high content imaging); type: cell-based; details: T-Rex 293 HA-BRAF G466V; for DC50: half maximal degradation, read-out: BRaf G466V DC50; for Dmax: maximum degradation observed
T2 construct: expressed in transfected cells
How it was run: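 Dose range spans 30 nM to 3 pM (0.1% DMSO) over 24 hours at 37° C, in cells induced with 0.75 ng/mL doxycycline. Fixed cells are probed with anti-HA antibody overnight at 4° C, then imaged; half-maximal degradation and maximum degradation are derived.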

T2 sequence (P15056 whole entry G466V): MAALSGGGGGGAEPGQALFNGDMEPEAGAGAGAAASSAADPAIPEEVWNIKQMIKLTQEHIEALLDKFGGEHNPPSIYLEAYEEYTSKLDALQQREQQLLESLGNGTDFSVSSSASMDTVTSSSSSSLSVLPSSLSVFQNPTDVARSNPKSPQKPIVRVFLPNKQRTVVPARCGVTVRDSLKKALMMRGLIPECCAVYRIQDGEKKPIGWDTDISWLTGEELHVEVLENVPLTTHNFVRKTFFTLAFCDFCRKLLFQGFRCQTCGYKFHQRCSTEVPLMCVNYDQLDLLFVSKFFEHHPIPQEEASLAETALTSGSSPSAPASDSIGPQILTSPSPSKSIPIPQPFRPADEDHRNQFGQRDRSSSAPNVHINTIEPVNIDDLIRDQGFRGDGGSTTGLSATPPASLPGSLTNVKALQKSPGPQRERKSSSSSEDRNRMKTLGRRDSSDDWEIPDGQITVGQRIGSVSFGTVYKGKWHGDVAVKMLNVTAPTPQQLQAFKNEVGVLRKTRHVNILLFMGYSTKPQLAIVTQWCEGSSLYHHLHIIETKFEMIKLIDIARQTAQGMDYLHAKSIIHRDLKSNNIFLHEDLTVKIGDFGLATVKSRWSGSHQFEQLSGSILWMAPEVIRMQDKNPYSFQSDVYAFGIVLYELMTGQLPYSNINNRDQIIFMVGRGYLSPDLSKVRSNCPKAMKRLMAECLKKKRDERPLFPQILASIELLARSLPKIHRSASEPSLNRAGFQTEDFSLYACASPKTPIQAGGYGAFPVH
T1 sequence (P15056 whole entry V600E): as the sequence (P15056 whole entry G466V) above, with V466G, V600E counted along it

Row | DC50 [1] | DC50 [2] | Dmax [2] | Dmax [1] | Structure (SMILES)
1 | > 500 nM | < 1 nM | < 35% |  | Nc1ccc(F)c(C(=O)c2c[nH]c3ncc(-c4ccc(N5CCC(CN6CCC(c7ccc8c(c7)CN([C@H]7CCC(=O)NC7=O)C8=O)CC6)CC5)cc4)cc23)c1F [Compound 254, (3S)-3-(5-{1-[(1-{4-[3-(3-amino-2,6-difluorobenzoyl)-1H-pyrrolo[2,3-b]pyridin-5-yl]phenyl}piperidin-4-yl)methyl]piperidin-4-yl}-1-oxo-2,3-dihydro-1H-isoindol-2-yl) piperidine-2,6-dione]
2 | 5 to 50 nM | < 1 nM | > 70% | 35 to 70% | O=C1CC[C@H](N2Cc3cc(C4CCN(CC5CCN(c6ccc(-c7cnc8[nH]cc(C(=O)c9c(F)ccc(NS(=O)(=O)N%10CCCC%10)c9F)c8c7)cc6)CC5)CC4)ccc3C2=O)C(=O)N1 [Compound 230, N-{3-[5-(4-{4-[(4-{2-[(3S)-2,6-dioxopiperidin-3-yl]-1-oxo-2,3-dihydro-1H-isoindol-5-yl}piperidin-1-yl)methyl]piperidin-1-yl}phenyl)-1H-pyrrolo[2,3-b]pyridine-3-carbonyl]-2,4-difluorophenyl}pyrrolidine-1-sulfonamide]
3 | 5 to 50 nM | 1 to 10 nM | > 70% | 35 to 70% | CN(CC1CCN(c2ccc(-c3cnc4[nH]cc(C(=O)c5c(F)ccc(NS(=O)(=O)N6CC[C@@H](F)C6)c5F)c4c3)cc2)CC1)[C@H]1C[C@@H](Oc2ccc3c(c2)CN(C2CCC(=O)NC2=O)C3=O)C1 (stereo partly drawn) [Compound 155, (3R)-N-[2,4-difluoro-3-(5-{4-[4-({methyl[(1s,3s)-3-{[2-(2,6-dioxopiperidin-3-yl)-1-oxo-2,3-dihydro-1H-isoindol-5-yl]oxy}cyclobutyl]amino}methyl)piperidin-1-yl]phenyl}-1H-pyrrolo[2,3-b]pyridine-3-carbonyl)phenyl]-3-fluoropyrrolidine-1-sulfonamide]
4 | 5 to 50 nM | 1 to 10 nM | 35 to 70% | < 35% | O=C1CCC(N2Cc3cc(N4CCC(C5CCN(c6ccc(-c7cnc8[nH]cc(C(=O)c9c(F)ccc(NS(=O)(=O)N%10CC[C@@H](F)C%10)c9F)c8c7)cc6)CC5)CC4)ccc3C2=O)C(=O)N1 (stereo partly drawn) [Compound 214, (3R)-N-{3-[5-(4-{1′-[2-(2,6-dioxopiperidin-3-yl)-1-oxo-2,3-dihydro-1H-isoindol-5-yl]-[4,4′-bipiperidin]-1-yl}phenyl)-1H-pyrrolo[2,3-b]pyridine-3-carbonyl]-2,4-difluorophenyl}-3-fluoropyrrolidine-1-sulfonamide]
5 | < 5 nM | < 1 nM | > 70% | 35 to 70% | O=C1CC[C@H](N2Cc3cc(N4C[C@H]5CN(CC6CCN(c7ccc(-c8cnc9[nH]cc(C(=O)c%10c(F)ccc(NS(=O)(=O)N%11CC[C@@H](F)C%11)c%10F)c9c8)cc7)CC6)C[C@H]5C4)ccc3C2=O)C(=O)N1 [Compound 57, (3R)-N-(3-{5-[4-(4-{[(3aR,6aS)-5-{2-[(3S)-2,6-dioxopiperidin-3-yl]-1-oxo-2,3-dihydro-1H-isoindol-5-yl}-octahydropyrrolo [3,4-c]pyrrol-2-yl]methyl}piperidin-1-yl)phenyl]-1H-pyrrolo[2,3-b]pyridine-3-carbonyl}-2,4-difluorophenyl)-3-fluoropyrrolidine-1-sulfonamide]
6 | 5 to 50 nM | < 1 nM | 35 to 70% | 35 to 70% | O=C1CC[C@@H](N2Cc3cc(/C=C/CN4CC5(C4)CN(c4ccc(-c6cnc7[nH]cc(C(=O)c8c(F)ccc(NS(=O)(=O)N9CC[C@@H](F)C9)c8F)c7c6)cc4)C5)ccc3C2=O)C(=O)N1 [Compound 39, (3R)-N-{3-[5-(4-{6-[(2E)-3-{2-[(3R)-2,6-dioxopiperidin-3-yl]-1-oxo-2,3-dihydro-1H-isoindol-5-yl}prop-2-en-1-yl]-2,6-diazaspiro[3.3]heptan-2-yl}phenyl)-1H-pyrrolo[2,3-b]pyridine-3-carbonyl]-2,4-difluorophenyl}-3-fluoropyrrolidine-1-sulfonamide]
7 | 5 to 50 nM | 1 to 10 nM | > 70% | 35 to 70% | O=C1CC[C@@H](N2Cc3cc(N4CCC(OC5CCN(c6ccc(-c7cnc8[nH]cc(C(=O)c9c(F)ccc(NS(=O)(=O)N%10CC[C@@H](F)C%10)c9F)c8c7)cc6)CC5)CC4)ccc3C2=O)C(=O)N1 [Compound 35, (3R)-N-{3-[5-(4-{4-[(1-{2-[(3R)-2,6-dioxopiperidin-3-yl]-1-oxo-2,3-dihydro-1H-isoindol-5-yl}piperidin-4-yl)oxy]piperidin-1-yl}phenyl)-1H-pyrrolo [2,3-b]pyridine-3-carbonyl]-2,4-difluorophenyl}-3-fluoropyrrolidine-1-sulfonamide]
8 | 5 to 50 nM | 1 to 10 nM | > 70% | 35 to 70% | C[C@H]1C[C@@H](CN2CCC(c3ccc4c(c3)CN([C@H]3CCC(=O)NC3=O)C4=O)CC2)CCN1c1ccc(-c2cnc3[nH]cc(C(=O)c4c(F)ccc(NS(=O)(=O)N5CC[C@@H](F)C5)c4F)c3c2)cc1 [Compound 239, (3R)-N-[3-(5-{4-[(2S,4S)-4-[(4-{2-[(3S)-2,6-dioxopiperidin-3-yl]-1-oxo-2,3-dihydro-1H-isoindol-5-yl}piperidin-1-yl)methyl]-2-methylpiperidin-1-yl]phenyl}-1H-pyrrolo[2,3-b]pyridine-3-carbonyl)-2,4-difluorophenyl]-3-fluoropyrrolidine-1-sulfonamide]
9 | 5 to 50 nM | 1 to 10 nM | > 70% | 35 to 70% | O=C1CCC(N2Cc3cc(N4CCN(C[C@@H](O)Cc5ccc(-c6cnc7[nH]cc(C(=O)c8c(F)ccc(NS(=O)(=O)N9CC[C@@H](F)C9)c8F)c7c6)cc5)CC4)ccc3C2=O)C(=O)N1 (stereo partly drawn) [Compound 98, (3R)-N-[3-(5-{4-[(2S)-3-{4-[2-(2,6-dioxopiperidin-3-yl)-1-oxo-2,3-dihydro-1H-isoindol-5-yl]piperazin-1-yl}-2-hydroxypropyl]phenyl}-1H-pyrrolo[2,3-b]pyridine-3-carbonyl)-2,4-difluorophenyl]-3-fluoropyrrolidine-1-sulfonamide]
10 | 5 to 50 nM | 1 to 10 nM | 35 to 70% | 35 to 70% | O=C1CCC(N2Cc3cc(N4CCN(C[C@H](O)Cc5ccc(-c6cnc7[nH]cc(C(=O)c8c(F)ccc(NS(=O)(=O)N9CC[C@@H](F)C9)c8F)c7c6)cc5)CC4)ccc3C2=O)C(=O)N1 (stereo partly drawn) [Compound 90, (3R)—N-[3-[5-[4-[(2R)-3-[4-[2-(2,6-dioxo-3-piperidyl)-1-oxo-isoindolin-5-yl]piperazin-1-yl]-2-hydroxy-propyl]phenyl]-1H-pyrrolo[2,3-b]pyridine-3-carbonyl]-2,4-difluoro-phenyl]-3-fluoro-pyrrolidine-1-sulfonamide]
11 | 5 to 50 nM | 1 to 10 nM | > 70% | 35 to 70% | CN(CC(F)F)S(=O)(=O)Nc1ccc(F)c(C(=O)c2c[nH]c3ncc(-c4ccc(N5CCC(CN6CCC(c7ccc8c(c7)CN(C7CCC(=O)NC7=O)C8=O)CC6)CC5)cc4)cc23)c1F (stereo not shown) [Compound 213, 3-(5-{1-[(1-{4-[3-(3-{[(2,2-difluoroethyl)(methyl)sulfamoyl]amino}-2,6-difluorobenzoyl)-1H-pyrrolo[2,3-b]pyridin-5-yl]phenyl}piperidin-4-yl)methyl]piperidin-4-yl}-1-oxo-2,3-dihydro-1H-isoindol-2-yl) piperidine-2,6-dione]
12 | > 500 nM | < 1 nM | 35 to 70% | > 70% | O=C1CCC(N2Cc3cc(N4CC5(CN(c6ccc(-c7cnc8[nH]cc(C(=O)c9c(F)ccc(NS(=O)(=O)N%10CC[C@@H](F)C%10)c9F)c8c7)cc6)C5)C4)ccc3C2=O)C(=O)N1 (stereo partly drawn) [Compound 26, (3R)-N-{3-[5-(4-{6-[2-(2,6-dioxopiperidin-3-yl)-1-oxo-2,3-dihydro-1H-isoindol-5-yl]-2,6-diazaspiro[3.3]heptan-2-yl}phenyl)-1H-pyrrolo[2,3-b]pyridine-3-carbonyl]-2,4-difluorophenyl}-3-fluoropyrrolidine-1-sulfonamide]
13 | 5 to 50 nM | < 1 nM | 35 to 70% | 35 to 70% | O=C1CCC(c2ccc(C3CCN(CC4CCN(c5ccc(-c6cnc7[nH]cc(C(=O)c8c(F)ccc(NS(=O)(=O)N9CC[C@@H](F)C9)c8F)c7c6)cc5)CC4)CC3)cc2)C(=O)N1 (stereo partly drawn) [Compound 189, (3R)-N-[3-(5-{4-[4-({4-[4-(2,6-dioxopiperidin-3-yl)phenyl]piperidin-1-yl}methyl)piperidin-1-yl]phenyl}-1H-pyrrolo[2,3-b]pyridine-3-carbonyl)-2,4-difluorophenyl]-3-fluoropyrrolidine-1-sulfonamide]

Row | Structure (SMILES) | DC50 [1] | DC50 [2] | Dmax [2] | Dmax [1]
14 | CN(CC1CCN(c2ccc3c(c2)CN(C2CCC(=O)NC2=O)C3=O)CC1)[C@H]1C[C@@H](Oc2ccc(-c3cnc4[nH]cc(C(=O)c5c(F)ccc(NS(=O)(=O)N6CC[C@@H](F)C6)c5F)c4c3)cc2)C1 (stereo partly drawn) [Compound 167, (3R)-N-[2,4-difluoro-3-(5-{4-[(1s,3s)-3-[({1-[2-(2,6-dioxopiperidin-3-yl)-1-oxo-2,3-dihydro-1H-isoindol-5-yl]piperidin-4-yl}methyl)(methyl)amino]cyclobutoxy)phe-nyl}-1H-pyrrolo[2,3-b]pyridine-3-carbonyl)phenyl]-3-fluoropyrrolidine-1-sulfonamide] | 5 to 50 nM | 1 to 10 nM | 35 to 70% | 35 to 70%
